Molecular target: Signal transducer and activator of transcription 3 (Homo sapiens, UniProt P40763)
Experiment: Inhibition of STAT3 tyrosine phosphorylation in human A549 cells by sandwich ELISA method

Signal transducer and activator of transcription 3, sequence (P40763 whole entry): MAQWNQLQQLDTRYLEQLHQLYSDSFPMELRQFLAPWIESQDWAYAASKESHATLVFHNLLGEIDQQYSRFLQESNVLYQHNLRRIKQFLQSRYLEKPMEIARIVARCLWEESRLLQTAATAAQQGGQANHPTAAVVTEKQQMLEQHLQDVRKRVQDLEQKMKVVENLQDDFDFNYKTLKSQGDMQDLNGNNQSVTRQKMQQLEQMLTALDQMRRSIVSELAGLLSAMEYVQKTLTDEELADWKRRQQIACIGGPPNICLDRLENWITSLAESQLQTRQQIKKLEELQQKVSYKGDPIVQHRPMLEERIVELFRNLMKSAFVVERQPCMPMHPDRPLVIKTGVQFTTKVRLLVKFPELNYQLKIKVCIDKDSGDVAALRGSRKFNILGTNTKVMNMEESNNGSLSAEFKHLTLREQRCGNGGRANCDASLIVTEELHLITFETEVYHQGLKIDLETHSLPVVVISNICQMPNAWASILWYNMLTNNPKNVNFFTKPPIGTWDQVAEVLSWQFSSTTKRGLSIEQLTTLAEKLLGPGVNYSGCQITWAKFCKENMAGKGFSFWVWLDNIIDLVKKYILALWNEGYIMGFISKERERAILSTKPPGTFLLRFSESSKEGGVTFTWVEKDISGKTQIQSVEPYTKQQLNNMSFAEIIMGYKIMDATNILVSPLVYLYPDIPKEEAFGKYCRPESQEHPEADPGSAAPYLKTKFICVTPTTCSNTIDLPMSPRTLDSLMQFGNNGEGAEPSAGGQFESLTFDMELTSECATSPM

For `COc1ccc(S(=O)(=O)Nc2ccccc2-c2ccc(F)c(F)c2)cc1`, the IC50 was 2.75 µM.

— BindingDB's records for doi:10.1021/acs.jmedchem.5b00659 (Taipei Medical University, 2015)
